Measurements published in patent publication US8642609B2, “Modulators of ATP-binding cassette transporters” (Vertex Pharmaceuticals Incorporated, priority 2003, dated 2014).

Target: T1, ΔF508-CFTR (Homo sapiens, UniProt P13569, DEL508-508)
T1 construct: expressed in transfected cells
Assay: Membrane potential optical assay (FRET/VIPR), identification of correction compounds
Format: cell-based
Details: for Emax: relative efficacy
Summary of the method: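 Corrector screen: FRET voltage-sensor dyes (CC2-DMPE donor, DiSBAC2(3)) report Cl^− efflux-driven depolarization after 10 μM forskolin and 20 μM genistein in Cl^−-free medium. Beforehand, ΔF508-CFTR NIH3T3 fibroblasts received compound for 16 hrs at 37° C; temperature-corrected cells (27° C) served as positive control.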

T1 sequence (P13569 with tags, fused parts or gaps DEL508-508): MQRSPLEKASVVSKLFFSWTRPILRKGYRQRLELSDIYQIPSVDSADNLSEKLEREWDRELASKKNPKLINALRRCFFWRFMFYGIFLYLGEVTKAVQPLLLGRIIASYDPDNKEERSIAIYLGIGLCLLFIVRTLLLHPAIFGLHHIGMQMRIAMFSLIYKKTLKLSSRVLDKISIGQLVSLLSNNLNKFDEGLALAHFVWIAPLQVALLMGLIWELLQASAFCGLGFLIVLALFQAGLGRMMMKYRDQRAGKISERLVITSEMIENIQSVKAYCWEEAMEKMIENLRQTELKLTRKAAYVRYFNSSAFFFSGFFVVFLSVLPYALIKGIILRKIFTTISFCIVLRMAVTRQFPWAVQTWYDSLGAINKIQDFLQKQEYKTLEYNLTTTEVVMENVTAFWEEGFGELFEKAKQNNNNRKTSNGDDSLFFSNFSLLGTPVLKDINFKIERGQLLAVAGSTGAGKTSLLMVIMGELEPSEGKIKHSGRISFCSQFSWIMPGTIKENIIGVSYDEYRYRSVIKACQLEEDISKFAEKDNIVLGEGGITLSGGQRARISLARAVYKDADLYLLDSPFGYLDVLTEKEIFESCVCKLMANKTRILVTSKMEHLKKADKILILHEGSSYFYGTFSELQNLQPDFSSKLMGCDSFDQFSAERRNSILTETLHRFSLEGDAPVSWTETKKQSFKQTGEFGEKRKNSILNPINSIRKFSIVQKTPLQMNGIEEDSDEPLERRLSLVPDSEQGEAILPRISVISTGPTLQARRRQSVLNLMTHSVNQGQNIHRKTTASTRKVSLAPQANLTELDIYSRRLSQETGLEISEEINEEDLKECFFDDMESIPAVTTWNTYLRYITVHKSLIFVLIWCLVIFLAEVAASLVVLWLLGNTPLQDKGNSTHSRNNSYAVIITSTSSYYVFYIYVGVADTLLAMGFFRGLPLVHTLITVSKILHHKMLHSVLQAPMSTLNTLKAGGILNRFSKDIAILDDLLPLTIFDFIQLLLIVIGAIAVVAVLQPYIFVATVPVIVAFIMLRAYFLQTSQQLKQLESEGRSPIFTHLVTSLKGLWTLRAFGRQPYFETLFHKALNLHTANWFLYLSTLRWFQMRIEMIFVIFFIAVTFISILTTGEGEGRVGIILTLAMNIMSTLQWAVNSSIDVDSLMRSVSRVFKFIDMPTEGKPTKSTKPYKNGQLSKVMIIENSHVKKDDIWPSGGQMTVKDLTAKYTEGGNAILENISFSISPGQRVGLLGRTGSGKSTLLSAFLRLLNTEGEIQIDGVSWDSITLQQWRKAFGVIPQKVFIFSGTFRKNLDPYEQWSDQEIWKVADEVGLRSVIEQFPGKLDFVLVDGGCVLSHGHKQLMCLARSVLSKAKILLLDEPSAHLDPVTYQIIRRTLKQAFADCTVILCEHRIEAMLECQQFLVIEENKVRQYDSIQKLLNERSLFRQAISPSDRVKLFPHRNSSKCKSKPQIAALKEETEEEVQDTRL

Row | SMILES | EC50 | Emax
1 | CC(NC[C@@H]1CCCCN1)c1nc2ccccc2c(=O)n1C (some centres unmarked) [compound 183] | 25 to 60 µM | 
2 | CC(c1nc2ccccc2c(=O)n1C)N1CCC(NS(=O)(=O)c2ccc(Cl)cc2)C1 (centres unmarked) [compound 162] | 25 to 60 µM | < 25%
3 | CC(c1nc2ccccc2c(=O)n1C)N1CCN(C(=O)c2ccc(Cl)cc2)CC1 (centres unmarked) [compound 53] | 25 to 60 µM | 25 to 100%
4 | CC(c1nc2ccccc2c(=O)n1C)N(CCCNS(=O)(=O)c1ccc(Cl)cc1)S(=O)(=O)c1ccc(Cl)cc1 (centres unmarked) [compound 206] | 25 to 60 µM | < 25%
5 | CC(c1nc2ccccc2c(=O)n1C)N(CCNS(=O)(=O)c1ccc(Br)cc1)S(=O)(=O)c1ccc(Br)cc1 (centres unmarked) [compound 199] | 25 to 60 µM | < 25%
6 | CC(c1nc2ccccc2c(=O)n1C)N(CCN(C)S(=O)(=O)c1ccc(Cl)cc1)S(=O)(=O)c1ccc(Cl)cc1 (centres unmarked) [compound 201] | 25 to 60 µM | < 25%
7 | CCCn1c(C(C)N2CCN(C(=O)Nc3cccc(C#N)c3)CC2)nc2ccccc2c1=O (centres unmarked) [compound 23] | 25 to 60 µM | 25 to 100%
8 | CC(c1nc2ccccc2c(=O)n1C)N1CCN(S(=O)(=O)c2cccc3cccnc23)CC1 (centres unmarked) [compound 276] | 25 to 60 µM | < 25%
9 | CC(c1nc2ccccc2c(=O)n1C)N1CCN(S(=O)(=O)c2cccc3nonc23)CC1 (centres unmarked) [compound 264] | 25 to 60 µM | < 25%
10 | CC(c1nc2ccc(-c3nnn[nH]3)cc2c(=O)n1C)N1CCN(S(=O)(=O)c2ccc(Cl)cc2)CC1 (centres unmarked) [compound 154] | 25 to 60 µM | > 100%
11 | CSc1ccc(S(=O)(=O)N2CCN(C(C)c3nc4ccccc4c(=O)n3C)CC2)cc1 (centres unmarked) [compound 350] | 25 to 60 µM | < 25%
12 | CC(c1nc2ccc(Cl)cc2c(=O)n1C)N1CCN(C(=O)Nc2ccccc2)CC1 (centres unmarked) [compound 43] | 25 to 60 µM | < 25%
13 | COC(=O)c1sccc1S(=O)(=O)N1CCN(C(C)c2nc3ccccc3c(=O)n2C)CC1 (centres unmarked) [compound 256] | 25 to 60 µM | < 25%
14 | COc1ccc(S(=O)(=O)N2CCN(C(C)c3nc4ccccc4c(=O)n3CC(C)(C)C)CC2)cc1 (centres unmarked) [compound 332] | 25 to 60 µM | 25 to 100%
15 | COc1ccc(S(=O)(=O)N2CCN(C(C)c3nc(N4CC(C)CC(C)C4)c4ccccc4n3)CC2)cc1 (centres unmarked) [compound 316] | 25 to 60 µM | 25 to 100%
16 | CC(c1nc2ccccc2c(=O)n1C)N1CCN(S(=O)(=O)c2ccc(-c3cc(C(F)(F)F)nn3C)s2)CC1 (centres unmarked) [compound 258] | 25 to 60 µM | < 25%

Row | SMILES | EC50 | Emax
17 | Cc1cccc(C(=O)N2CCN(C(C)c3nc4ccc(Cl)cc4c(=O)n3C)CC2)c1 (centres unmarked) [compound 59] | 25 to 60 µM | 25 to 100%
18 | COc1ccc(S(=O)(=O)N2CCN(C(C)c3nc4ccccc4c(=O)n3CCNC(C)=O)CC2)cc1 (centres unmarked) [compound 288] | 25 to 60 µM | < 25%
19 | CC(=O)c1ccc(S(=O)(=O)N2CCN(C(C)c3nc4ccccc4c(=O)n3C)CC2)cc1 (centres unmarked) [compound 239] | 25 to 60 µM | < 25%
20 | COc1ccc(S(=O)(=O)Nc2ccc(NC(C)c3nc4ccccc4c(=O)n3C)cc2)cc1 (centres unmarked) [compound 307] | 25 to 60 µM | 25 to 100%
21 | Cc1c(S(=O)(=O)N2CCN(C(C)c3nc4ccccc4c(=O)n3C)CC2)sc2ccc(F)cc12 (centres unmarked) [compound 290] | 25 to 60 µM | 25 to 100%
22 | COc1cccc(S(=O)(=O)N2CCN(C(C)c3nc4ccccc4c(=O)n3C)CC2)c1 (centres unmarked) [compound 249] | 25 to 60 µM | 25 to 100%
23 | CC(c1nc2ccccc2c(=O)n1C)N1CCN(S(=O)(=O)c2ccc(C(C)(C)C)cc2)CC1 (centres unmarked) [compound 13] | 25 to 60 µM | < 25%
24 | COc1ccc(S(=O)(=O)N2CCN(C(C)c3nc(N4CCN(C(C)=O)CC4)c4ccccc4n3)CC2)cc1 (centres unmarked) [compound 369] | 25 to 60 µM | 25 to 100%
25 | Cc1cccc(C(=O)N2CCN(C(C)c3nc4ccccc4c(=O)n3C)CC2)c1 (centres unmarked) [compound 57] | 25 to 60 µM | < 25%
26 | COc1ccc(S(=O)(=O)N2CCN(C(C)c3nccc(N4CCCCC4)n3)CC2)cc1 (centres unmarked) [compound 360] | 25 to 60 µM | 25 to 100%
27 | CC(c1nc2ccccc2c(=O)n1C)N(C)C1CCN(S(=O)(=O)c2ccc(Br)cc2)CC1 (centres unmarked) [compound 306] | 25 to 60 µM | 25 to 100%
28 | CC(c1nc2cc(Cl)ccc2c(=O)n1C)N1CCNCC1 (centres unmarked) [compound 90] | 25 to 60 µM | < 25%
29 | COc1cc(C(=O)N2CCN(C(C)c3nc4ccc(Cl)cc4c(=O)n3C)CC2)cc(OC)c1OC (centres unmarked) [compound 14] | 25 to 60 µM | < 25%
30 | COc1ccc(S(=O)(=O)N2CCN(C(C)c3nc(N4CCC(C(N)=O)CC4)c4ccccc4n3)CC2)cc1 (centres unmarked) [compound 364] | 25 to 60 µM | 25 to 100%
31 | CC(c1nc2ccccc2c(=O)n1C)N1CCN(S(=O)(=O)c2ccc(S(C)(=O)=O)cc2)CC1 (centres unmarked) [compound 262] | 25 to 60 µM | < 25%

More lines, now with the values ahead:

Row | EC50 | Emax | SMILES
32 | 25 to 60 µM | < 25% | COc1ccc(S(=O)(=O)N2CCN(C(C)c3nc4ccccc4c(=O)n3C)CC2)cc1OC (centres unmarked) [compound 49]
33 | < 10 µM | 25 to 100% | CCOC(=O)c1cnc(C(C)N2CCN(S(=O)(=O)c3ccc(OC)cc3)CC2)nc1N1CCCCC1 (centres unmarked) [compound 353]
34 | 25 to 60 µM | < 25% | CC(c1nc2ccccc2c(=O)n1C)N1CCN(S(=O)(=O)c2ccc(Cl)c3nonc23)CC1 (centres unmarked) [compound 271]
35 | 25 to 60 µM | < 25% | CC(c1nc2ccccc2c(=O)n1C)N1CCN(S(=O)(=O)c2ccc(-c3ccccn3)s2)CC1 (centres unmarked) [compound 281]
36 | 25 to 60 µM | 25 to 100% | COc1ccc(S(=O)(=O)N2CCN(C(C)c3nc(N(C)C)c4ccccc4n3)CC2)cc1 (centres unmarked) [compound 193]
37 | 10 to 25 µM | > 100% | CC(c1nc(N2CCOCC2)c2ccccc2n1)N1CCN(S(=O)(=O)c2ccc(Br)cc2)CC1 (centres unmarked) [compound 223]
38 | 10 to 25 µM | 25 to 100% | COc1ccc(S(=O)(=O)N2CCN(C(C)c3nc4ccc(Cl)cc4c(=O)n3C)CC2)cc1OC (centres unmarked) [compound 72]
39 | 10 to 25 µM | 25 to 100% | COc1ccc(S(=O)(=O)N2CCN(C(C)c3nc4ccc(N)cc4c(=O)n3C)CC2)cc1 (centres unmarked) [compound 145]
40 | 10 to 25 µM | > 100% | COc1ccc(S(=O)(=O)N2CCN(Cc3nc(N4CCCCC4)c4ccccc4n3)CC2)cc1 [compound 384]
41 | < 10 µM | > 100% | COc1ccc(S(=O)(=O)N2CCN(C(C)c3nc(N4CC5CCC4C5)c4ccccc4n3)CC2)cc1 (centres unmarked) [compound 361]
42 | 10 to 25 µM | < 25% | COc1ccc(C(=O)N2CCN(C(C)c3nc4cc(Cl)ccc4c(=O)n3C)CC2)cc1 (centres unmarked) [compound 122]
43 | 10 to 25 µM | 25 to 100% | CC(c1nc2ccccc2c(=O)n1C)N1CCN(S(=O)(=O)c2cccc(Cl)c2)CC1 (centres unmarked) [compound 61]
44 | 10 to 25 µM | < 25% | CC(c1nc2cc(Cl)ccc2c(=O)n1C)N1CCN(S(C)(=O)=O)CC1 (centres unmarked) [compound 108]
45 | < 10 µM | 25 to 100% | COc1ccc(S(=O)(=O)N2CCN(C(C)c3nc(Oc4ccncc4)c4ccccc4n3)CC2)cc1 (centres unmarked) [compound 297]
46 | < 10 µM | 25 to 100% | CC(c1nc2ccc(Cl)cc2c(=O)n1C)N1CCN(S(=O)(=O)c2ccc(Br)cc2)CC1 (centres unmarked) [compound 42]
47 | 10 to 25 µM | 25 to 100% | COc1ccc(S(=O)(=O)N2CCN(C(C)c3nc4ccc(OC)cc4c(=O)n3C)CC2)cc1 (centres unmarked) [compound 135]

Row | EC50 | Emax | SMILES
48 | < 10 µM | > 100% | COc1ccc(S(=O)(=O)N2CCN(C3(c4nc(N5CCCCC5)c5ccccc5n4)CC3)CC2)cc1 [compound 387]
49 | 10 to 25 µM | 25 to 100% | COc1ccc(S(=O)(=O)N2CCN(C(C)c3nc(N(C)CC4OCCO4)c4ccccc4n3)CC2)cc1 (centres unmarked) [compound 395]
50 | 10 to 25 µM | < 25% | Cn1c(CN2CCN(S(=O)(=O)c3ccccc3)CC2)nc2ccc(Cl)cc2c1=O [compound 65]
51 | 10 to 25 µM | 25 to 100% | C#Cc1ccc(S(=O)(=O)N2CCN(C(C)c3nc4ccccc4c(=O)n3C)CC2)cc1 (centres unmarked) [compound 354]
52 | 10 to 25 µM | 25 to 100% | CC(c1nc2ccccc2c(=O)n1CCO)N1CCN(S(=O)(=O)c2ccc(Br)cc2)CC1 (centres unmarked) [compound 153]
53 | 10 to 25 µM | 25 to 100% | CC(c1nc2ccc(Br)cc2c(=O)n1C)N1CCN(S(=O)(=O)c2ccccc2)CC1 (centres unmarked) [compound 114]
54 | < 10 µM | > 100% | COc1ccc(S(=O)(=O)N2CCC(C(C)c3nc(OC4CCCC4)c4ccccc4n3)CC2)cc1 (centres unmarked) [compound 403]
55 | 10 to 25 µM | < 25% | CC(c1nc2ccc(Cl)cc2c(=O)n1C)N1CCN(S(=O)(=O)c2ccccc2Cl)CC1 (centres unmarked) [compound 63]
56 | 10 to 25 µM | 25 to 100% | CC(c1nc2ccc(Cl)cc2c(=O)n1C)N1CCN(S(=O)(=O)c2cccc(Cl)c2)CC1 (centres unmarked) [compound 64]
57 | < 10 µM | > 100% | COc1ccc(S(=O)(=O)N2CCN(C(C)c3nc(N4CCC5CCCCC5C4)c4ccccc4n3)CC2)cc1 (centres unmarked) [compound 327]
58 | 10 to 25 µM | < 25% | CC(c1nc2ccccc2c(=O)n1C)N1CCN(C(=O)c2ccc(Br)cc2)CC1 (centres unmarked) [compound 55]
59 | 10 to 25 µM | 25 to 100% | Cc1ccc(S(=O)(=O)N2CCN(C(C)c3nc4ccccc4c(=O)n3C)CC2)cc1 (centres unmarked) [compound 11]
60 | 10 to 25 µM | 25 to 100% | CC(c1nc2ccccc2c(=O)n1C)N1CCCN(S(=O)(=O)c2ccc(Cl)cc2)CC1 (centres unmarked) [compound 171]
61 | 10 to 25 µM | 25 to 100% | CC(=O)Nc1ccc(S(=O)(=O)N2CCN(C(C)c3nc4cc(Cl)ccc4c(=O)n3C)CC2)cc1 (centres unmarked) [compound 111]
62 | 10 to 25 µM | 25 to 100% | CC(c1nc2ccc(S(C)(=O)=O)cc2c(=O)n1C)N1CCN(S(=O)(=O)c2ccc(Br)cc2)CC1 (centres unmarked) [compound 142]
63 | 10 to 25 µM | 25 to 100% | COc1ccc(S(=O)(=O)N2CCN(C(C)c3nccc(OC4CCCC4)n3)CC2)cc1 (centres unmarked) [compound 382]
